Laboratory results as given in publication PMC8399913, “Development of Arteannuin B Sustained-Release Microspheres for Anti-Tumor Therapy by Integrated Experimental and Molecular Modeling Approaches” (Pharmaceutics, 2021).
Where two headings read alike, the source gives them in different places.

Assays:
[1] = PK study in SD rats (AB plasma concentration by LC-MS); type: in vivo, Sprague-Dawley rats; details: 3.5 mg/kg; for Cmax / half-life: Sprague-Dawley, rat, plasma
Experimental: There were 9 SD rats equally separated into three groups. The first two groups were injected with AB at a dose of 3.5 mg/kg, through different injection routes, either subcutaneous or intramuscular injections. Collect whole blood from the jugular vein of each rat one day before administration and 0, 0.08, 0.16, 0.25, 0.5, 1, 2, 4, 6, and 24 h after administration. The third group was a subcutaneous injection of ABMs with a dose of 50 mg/kg. The whole blood was collected from the jugular vein of each rat one day before the administration and 0.08, 0.25, 0.5, 1, 2, 4, 6, 24, 72, 168, and 240 h after administration. A 1.0 mL disposable syringe was used, and the blood volume was 0.2 mL each time. The whole blood sample was placed in a centrifuge tube (1.5 mL, Xinkang Medical, Taizhou, Jiang Su, China) containing 2000 KIU aprotinin and EDTA-K2 anticoagulant. Turn the centrifuge tube upside down to mix the anticoagulant with the blood thoroughly. Before centrifugation, it should be stored in a pre-cooled CoolRack module (Rack M30, Corning, NY, USA) on wet ice and centrifuged within 15 min after collection. Centrifugation was performed at 4000 rpm, 15 min, 4 °C. After centrifugation, the plasma was separated, the supernatant transferred to the label sample tube (the transfer process needs to be operated on ice), and the sample was checked and stored in the −80 °C refrigerator until analysis.
LC-MS spectrometry (TQ XS, Waters, Milford, MA, USA) was used to detect the plasma concentration of AB. The electrospray ion source (ESI+) in positive ion mode has an ion source temperature of 150 °C, a solvent removal temperature of 500 °C, and a capillary voltage of 0.5 kV. Multiple reaction monitoring (MRM) mass spectrometry parameters are: AB, m/z 249.1→189.1, cone voltage 20 V, collision voltage 10 eV; aripiprazole-D8 (internal reference), m/z 456.3→293.2, the cone voltage is 20 V, and the collision voltage is 25 eV.
SD male rat plasma 50 μL and 200 μL of precipitant (0.1% formic acid in acetonitrile, containing 0.2 ng/mL aripiprazole-D8 as an internal reference) was added into a 96-well plate, and the plate was shaken at 750 rpm (Compact Digital MicroPlate Shaker, Thermo fisher, Waltham, MA, USA) for 10 min. Next, the sample was centrifuged (Legend Micro 21R, Thermo fisher, Waltham, MA, USA) at 4200 rpm for 25 min. After centrifugation, 60 μL of the supernatant was added to a 96-well plate, and then 140 μL of pure water was added, and the plate was shaken at 750 rpm for 5 min before the sample was injected for detection.
HPLC was equipped with a C18 column (Waters, BEH, 130 Å, 2.1 × 50 mm, 1.7 μm), and the mobile phase consisted of elution A (0.1% w/v citric acid in 5%w acetonitrile aqueous solution) and elution B (0.1% w/v citric acid in 95%w acetonitrile aqueous solution) at the ratio of 70:30 v/v. The flow rate was set at 1 mL/min, and the injection volume was 10 μL. The column temperature was set at 60 °C.

A549 cells = experiment: Anti-tumor cell proliferation activity (MTT method); type: cell-based, human; details: mean ± SD, n = 3
Experimental: The human non-small cell lung cancer (NSCLC) cell line (A549) was from American Type Culture Collection (ATCC, Manassas, VA, USA). RPMI-1640 medium and fetal calf serum (FBS) were from Gibco Life Technologies (Grand Island, NY, USA). A549 cells were inoculated in RPMI 1640 medium (containing 10% FBS) in a 37 °C, 5% CO2 cell incubator for culture and storage.
A549 cells were seeded into a 96-well plate at a concentration of 5 × 10^3 per well. AB and ABMs were prepared with DMSO and a specific solvent to make the final concentration per well was 6.25, 12.5, 25, 50, and 100 μM. Here, the dosage of AB in ABMs is calculated according to the actual cumulative release amount in the solution, which is calculated as 55% in 96 h. In the experiment, the control group consisted of cells treated with DMSO and a specific solvent of ABMs and cells without any treatment. The MTT method was used to measure the optical density (OD) values of the cells at 24, 48, 72, and 96 h after treatment. The inhibition rate (IR) of each group of samples on tumor cell growth was calculated according to the following equation:(6) IR(%)=OD(solvent)−OD(exp)/OD(solvent)×100% where OD(solvent) is the mean OD of the solvent group and OD(exp) is the mean OD of the experimental group.
A dose–response curve could be obtained with different concentrations of the samples on the tumor cell growth inhibition, from which the half-inhibition concentration (IC50) of the sample can be obtained. There are five replicate holes in each group, and the average value of the five holes was taken. Three parallel experiments were carried out for each sample, and the results were expressed as mean ± standard deviation (mean ± SD). According to the inhibition rate of each group, the IC50 of AB and ABMs at each time point was calculated by the statistical software IBM SPSS Statistics 20.

[2] = tested on: HT-29, HepG2, SGC-7901, A549, K562, B16-F10, and Du145 cells; experiment: Preliminary experiments: tumor cell proliferation; type: cell-based
[3] = tested on: normal human embryonic liver cells L-02; experiment: Preliminary experiments: toxicity to normal cells; type: cell-based
[4] = tested on: mouse lung cancer metastasis models; experiment: Preliminary experiments: mouse lung cancer metastasis models; type: in vivo
[5] = Tolerance of AB dissolved in Tween-80, ethanol and PEG-40; type: in vivo
[6] = cited from earlier work
[7] = design: method as in doi:10.1002/cjoc.19830010106; details: cited from earlier work
A549 xenograft tumor = experiment: In vivo anti-tumor activity, A549 xenograft tumor model; design: species or system BALB/c nude mice; details: 3 mg/kg once every 3 d; after four weeks
Experimental: A549 xenograft tumor model was obtained by subcutaneously injecting 1 × 10^6 cells (A549) into BALB/c nude mice. When the average size of the tumor reached about 100 mm^3, the tumor-bearing mice were randomly divided into 6 groups (6 mice in each group). The average size of tumors was calculated according to the equation 0.5 × a × b × b (a is the length, b is the width). The 700, 350, and 175 mg/kg dose groups of the ABMs were suspended in a specific solvent and then administered subcutaneously once a week, 4 times in total. […] The vehicle (microsphere without AB) group was given once a week for a total of 4 times. The model (saline) group was given once a day as a control. Meanwhile, a group of mice without any treatment (WT group) was selected as the standard group for comparison. The changes in food intake, water consumption, and mental state of the nude mice were observed and recorded every day after administration. The body weight and tumor size of the tumor-bearing mice were measured twice a week, and the relative tumor volume (RTV) of the nude mice was calculated by Equation (7). RTV = Vt/V0(7) where Vt is the tumor volume at each measurement and V0 is the tumor volume before administration. The relative tumor growth rate T/C (%) was calculated according to the following equation to evaluate the anti-tumor activity of each group. (8) T/C(%)=TRTV/CRTV×100%

## C=C1C(=O)O[C@@]23[C@H]1CC[C@@H](C)[C@@H]2CC[C@@]1(C)O[C@@H]31 [AB, Arteannuin B]
[1]; male SD rats, IM, mean ± SEM
  Cmax: 74.5 ± 34.2 ng/mL
  AUClast: 0.618 ± 0.131 ng·days/mL
[1]; male SD rats, IM, mean ± SEM, read-out: t1/2 (converted)
  half-life: 2.3 h
[1]; male SD rats, SC, mean ± SEM
  Cmax: 236 ± 100 ng/mL
  AUClast: 2.538 ± 0.842 ng·days/mL
[1]; male SD rats, SC, mean ± SEM, read-out: t1/2 (converted)
  half-life: 1.15 h
[1]; male, rats, read-out: elimination half-life (converted)
  half-life: ~1 h
[1]; rats
  AUClast from subcutaneous injection relative to intramuscular injection: about four times that of intramuscular injection
A549 cells; 96 h (day four)
  IC50: 16.2 ± 4.78 µM
A549 cells; Homo sapiens, A549, 24 h, 24 h
  IC50: 211 ± 63.2 µM
A549 cells; Homo sapiens, A549, 48 h, 48 h
  IC50: 53.1 ± 22.5 µM
A549 cells; Homo sapiens, A549, 72 h, 72 h
  IC50: 27.5 ± 6.71 µM
A549 cells; Homo sapiens, A549, 96 h, 96 h (day four)
  IC50: 16 µM
[2]
  proliferation of tumor cells: inhibit the proliferation
[3]
  toxicity to normal cells: no obvious toxicity
[4]
  therapeutic effect: good therapeutic effect
[5]
  tolerance after administration: significant intolerance symptoms
[6]
  elimination half-life: about 1 h
[6]; in animals
  bioavailability: 19–35%
[7]
  antimalarial activity: no antimalarial activity

## N.N.[Cl][Pt][Cl] [DDP, Cis-platinum diamine-dichloride]
A549 xenograft tumor
  tumor size (weight of dissected tumor): 0.38 ± 0.04 g
